# pIC50: −log10 of the molar value. Where two headings read alike, the source gives them in different places.
# Columns and labels:
# [1] = molecular target: purified recombinant human FGFR2 protein (Homo sapiens (Human), UniProt P21802); test: Inhibitory effect on FGFR2 kinase activity (Test Example 1); format: biochemical; conditions: ATP 75 μM
# Procedure: EDTA (final concentration: 30 mM) diluted with a separation buffer (Caliper Life Sciences, Inc.) was added thereto to terminate the kinase reaction. […] The level of phosphorylation was determined from the quantitative ratio.
# [2] = tested on: AZD4547 resistant OCUM-2MD3 cells; test: Cell growth inhibition, AZD4547 resistant OCUM-2MD3 cells (Test Example 7); format: cell-based, human
# [3] = tested on: OCUM-2MD3 cells; test: Cell growth inhibition, OCUM-2MD3 parent cells (Test Example 7); format: cell-based, human; conditions: OCUM-2MD3 parent cell
# [4] = tested on: OCUM-2MD3 cells; conditions: Homo sapiens, OCUM-2MD3, 72 h
# Procedure: Human-derived gastric cancer OCUM-2MD3 cells, which overexpressed FGFR2, were subcultured daily in a Dulbecco's modified Eagle's medium (DMEM) containing 10% fetal bovine serum (FBS) at a cell density of not more than 80%. In order to initiate a test of the cell growth-inhibitory effect of the compounds, the OCUM-2MD3 cells were suspended in the above DMEM medium and seeded in a 96-well flat-bottom plate so that each well contained 3,000 cells. Then, the cells were cultured in an incubator containing 5% carbon dioxide gas at 37° C. for one day. […] The DMSO solution of the test compound was diluted with the medium used for cultivation, and the diluted solution was added to each well of the cell culture plate so that the final concentration of DMSO became 0.5%. Then, the cells were cultured in an incubator containing 5% carbon dioxide gas at 37° C. for 72 hours. The number of cells was measured at the time of the addition of the test compound and 72 hours later after culture by using a Cell Counting Kit-8 (produced by Dojindo Laboratories) according to a protocol recommended by Dojindo Laboratories. […] After completion of the reaction, the absorbance at a wavelength of 450 nm was measured by a microplate reader. […]
# T: absorbance of well to which test compound was added
# C: absorbance of well to which test compound was not added
# C0: absorbance of well measured before addition of compound
# Chain of purified recombinant human FGFR2 protein (P21802 22-821): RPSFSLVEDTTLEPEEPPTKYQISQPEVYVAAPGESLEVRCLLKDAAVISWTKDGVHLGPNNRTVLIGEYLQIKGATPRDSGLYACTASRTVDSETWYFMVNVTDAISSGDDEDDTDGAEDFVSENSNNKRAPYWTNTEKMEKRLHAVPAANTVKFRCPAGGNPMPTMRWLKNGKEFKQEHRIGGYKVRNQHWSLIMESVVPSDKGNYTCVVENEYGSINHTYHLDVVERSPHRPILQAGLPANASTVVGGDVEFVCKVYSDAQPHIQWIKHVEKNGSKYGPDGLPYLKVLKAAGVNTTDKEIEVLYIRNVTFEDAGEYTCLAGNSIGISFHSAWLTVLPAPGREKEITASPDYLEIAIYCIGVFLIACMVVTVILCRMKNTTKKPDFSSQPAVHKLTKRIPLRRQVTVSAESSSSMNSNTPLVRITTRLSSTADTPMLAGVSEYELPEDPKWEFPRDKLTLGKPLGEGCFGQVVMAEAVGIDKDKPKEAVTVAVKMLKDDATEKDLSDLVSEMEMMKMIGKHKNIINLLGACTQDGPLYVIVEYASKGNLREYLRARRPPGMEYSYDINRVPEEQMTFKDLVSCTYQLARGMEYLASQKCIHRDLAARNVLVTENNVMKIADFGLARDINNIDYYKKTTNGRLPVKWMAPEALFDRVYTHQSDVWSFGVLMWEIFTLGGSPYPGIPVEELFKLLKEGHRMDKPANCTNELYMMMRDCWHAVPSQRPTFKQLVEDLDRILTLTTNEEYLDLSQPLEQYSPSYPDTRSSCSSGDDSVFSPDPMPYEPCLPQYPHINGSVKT
Structure (SMILES),pIC50 [1],GI50 [4],further results
"CC(C)c1cc(C#Cc2nn([C@H]3CCN(C(=O)/C=C/CN(C)C)C3)c3ncnc(N)c23)cc(C(C)C)c1 [Ref. Ex. Compound 4, (S)-1-(3-(4-amino-3-((3,5-diisopropylphenyl)ethynyl)-1H-pyrazolo[3,4-d]pyrimidin-1-yl)pyrrolidin-1-yl)-4-(dimethylamino)but-2-en-1-one]",< 5.00,–,–
COc1cc(CCc2cc(NC(=O)c3ccc(N4CC(C)NC(C)C4)cc3)n[nH]2)cc(OC)c1 (centres unmarked) [AZD4547],–,–,"IC50 ([2]; read-out: Cell growth inhibition, IC50 (nM) AZD4547 resistant cells, AZD4547 resistant OCUM-2MD3 cells, range in brackets): 159 nM; IC50 [3]: 6.1 nM"
"CCOc1cc(C#Cc2nn(C3CN(C(=O)/C=C/CN(C)C)C3)c3ncnc(N)c23)cc(OCC)c1 [Ex. Compound 25, 1-(3-(4-amino-3-((3,5-diethoxyphenyl)ethynyl)-1H-pyrazolo[3,4-d]pyrimidin-1-yl)azetidin-1-yl)-4-(dimethylamino)but-2-en-1-one]",–,13 nM,–
CCN1CCN(c2ccc(Nc3cc(N(C)C(=O)Nc4c(Cl)c(OC)cc(OC)c4Cl)ncn3)cc2)CC1 [BGJ398],–,–,"IC50 ([2]; Homo sapiens, OCUM-2MD3, read-out: Cell growth inhibition, IC50 (nM) AZD4547 resistant cells): 55.6 nM; IC50 ([3]; Homo sapiens): 7.6 nM"
"C=CC(=O)N1C[C@@H](n2cc(C#Cc3cc(OC)cc(OC)c3)c3c(N)ncnc32)C[C@H]1C(=O)OC [Ex. Compound 66, (2S,4S)-methyl 1-acryloyl-4-(4-amino-5-((3,5-dimethoxyphenyl)ethynyl)-7H-pyrrolo[2,3-d]pyrimidin-7-yl)pyrrolidine-2-carboxylate]",> 9.52,< 4.6 nM,–

# From patent US10124003B2, “Therapeutic agent for FGFR inhibitor-resistant cancer” (TAIHO PHARMACEUTICAL CO., LTD., priority 2013, dated 2018)
